# Measurements as given in publication PMC2907371, “Antiviral biflavonoids from Radix Wikstroemiae (Liaogewanggen)” (Chinese Medicine, 2010).
# How the values were obtained:
# [1] = test system: HIV-1; set-up: method as in PMID 10985087; conditions: cited from earlier work
# [2] = test system: RSV (long strain, VR-26); assay: CPE reduction assay, in vitro antiviral activity against RSV; assay type: cell-based, respiratory syncytial virus; conditions: for anti-RSV activity (in words): in vitro; for IC50: human respiratory syncytial virus, concentration that reduced 50% of CPE in respect to virus control, RSV in HEp-2 cells, mean (SD), n = 3; for SI: ratio of CC50 to IC50
# Procedure: (§1) Human larynx epidermoid carcinoma cell line (HEp-2, CCL-23) and RSV (long strain, VR-26) were purchased from the American Type Culture Collection (ATCC, USA). The cells were grown in Eagle's minimum essential medium (EMEM) (Gibco, USA) supplemented with 10% fetal bovine serum (FBS) (Gibco, USA), 25 μg/ml gentamicin (Sigma, USA) and […] L-glutamine (Sigma, USA) (growth medium). Virus-infected cells were maintained in EMEM with 1% FBS, 25 μg/ml gentamicin and […] L-glutamine (maintenance medium). All the cells were cultured at 37°C in a humidified atmosphere supplied with 5% CO2. Virus titers were determined by the 50% tissue culture infective dose (TCID50) method.
# CPE reduction assay was adopted for screening the in vitro antiviral activity as described in the previous study. Briefly, 0.1 ml of 100 TCID50 virus suspension and serial two-fold dilutions of the tested samples were added simultaneously to confluent cell monolayers in a 96-well plate. Virus suspension and maintenance medium without samples were added as the virus control and cell control, respectively. The plates were incubated at 37°C in a humidified CO2 atmosphere for 3-5 days. The virus-induced CPE was scored against the virus control under a light microscope. Ribavirin (Sigma, USA) was used as positive control in this experiment.
# [3] = Cytotoxicity assay (MTT method); assay type: cell-based; conditions: human, concentration with half maximal inhibition on growth and survival of HEp-2 cells, mean (SD), n = 3
# Procedure: as §1
# Cell viability was tested by the 3-(4,5-dimethylthiazol-2-yl)-2,5-diphenyl tetrazolium bromide (MTT) method as described in previous study. Briefly, 100 μl of two-fold diluted samples were added to a 96-well plate containing confluent cell monolayer in triplicates while the dilution medium without the sample was the control. After 72 hours of incubation, 12 μl of the MTT solution (5 mg/ml in phosphate buffered saline) was added to each well. The trays were further incubated for four hours for the formation of blue formazan. After the supernatant was removed, the blue formazan was solubilized in 100 μl DMSO and the optical density (OD) was measured at 570 nm with a microplate reader.
Compound,activity against HIV-1 in vitro (in words) [1],anti-RSV activity (in words) ([2]; CPE reduction assay),IC50 [2] [µM],SI [2],CC50 at 72 h [3] [µM],"anti-RSV activity (in words) ([2]; CPE reduction assay, listed as neochamaejasmin B)","IC50 (symbol) ([2]; CPE reduction assay, highest concentration tested = maximal non-cytotoxic concentration)"
O=C(c1c(O)cc(O)cc1O)c1c(-c2ccc(O)cc2)oc2cc(O)c3c(c12)O[C@H](c1ccc(O)cc1)[C@@H](O)C3 [daphnodorin B],moderately active,,,,,,
COc1cc(C[C@@H]2COC(=O)[C@@]2(O)Cc2ccc(O)c(OC)c2)ccc1O [(+)-nortrachelogenin],moderately active,,,,,,
O=C1c2c(O)cc(O)cc2O[C@@]12c1c(cc(O)c3c1O[C@H](c1ccc(O)cc1)[C@@H](O)C3)O[C@@H]2c1ccc(O)cc1 [genkwanol A],moderately active,,,,,,
"O=C1C=C2O[C@H](c3ccc(O)cc3)[C@@]3(O)C(=O)c4c(O)cc(O)cc4O[C@@]23C2=C1C[C@@H](O)[C@@H](c1ccc(O)cc1)O2 [Compound IV, stelleranol]",,potent anti-RSV activity,10.2,15.8,162,,
"NC(=O)c1ncn([C@@H]2O[C@H](CO)[C@@H](O)[C@H]2O)n1 [Ribavirin, reference compound]",,,11.9,21.6,256,,
"O=C1C=C2O[C@H](c3ccc(O)cc3)[C@@]3(O)C(=O)c4c(O)cc(O)cc4O[C@@]23C2=C1C[C@H](O)[C@@H](c1ccc(O)cc1)O2 [Compound III, genkwanol C]",,potent anti-RSV activity,6.6,21.9,145,,
"O=C1C=C2O[C@@H](c3ccc(O)cc3)[C@]3(O)C(=O)c4c(O)cc(O)cc4O[C@]23C2=C1C[C@H](O)[C@@H](c1ccc(O)cc1)O2 [Compound II, genkwanol B]",,potent anti-RSV activity,9.6,11.0,106,,
O=c1c(-c2c(O)cc(O)c3c2O[C@H](c2ccc(O)cc2)[C@@H](O)C3)c(-c2ccc(O)cc2)oc2cc(O)cc(O)c12 [wikstrol B],moderately active,,,,,,
"O=C1c2c(O)cc(O)cc2O[C@H](c2ccc(O)cc2)[C@H]1[C@@H]1C(=O)c2c(O)cc(O)cc2O[C@@H]1c1ccc(O)cc1 [Compound I, neochamaejasmin B]",,did not show anti-RSV effect,,,29.9,did not,-
